In paper PMC7221892, “In Vitro and in Vivo Activity of mTOR Kinase and PI3K Inhibitors Against Leishmania donovani and Trypanosoma brucei” (Molecules, 2020):
Several values for one entry are separate records, joined by “and”; a condition that tells them apart may be missing. Equal values may be shown once.

Legend:
[1] = test system: T. b. brucei Lister 427 BSF; test: T. b. brucei Lister 427 bloodstream form growth inhibition (resazurin); type: cell-based; settings: Trypanosoma brucei, 72 h, 3 days exposure, read-out: T. brucei Lister 427 BSF EC50 ± SD
Description: (§1) L. donovani promastigote and T. b. brucei Lister 427 BSF growth inhibition were assayed by measuring the conversion of resazurin to resorufin. The assays were performed in 384-well plates that were seeded with L. donovani promastigotes or T. brucei 427 BSF (5 × 10^4 cells per well). After seeding, the parasites were exposed to the compounds for 3 days. Resazurin sodium salt (200 μM; R7017; Sigma-Aldrich, St. Louis, MO, USA) was then added, and the samples were incubated for 5 h. After incubation, the parasites were fixed using 4% paraformaldehyde, and the plates were analyzed using a Victor3^TM plate reader (PerkinElmer, Inc., Waltham, MA, USA) at 590 nm (emission) and 530 nm (excitation). […] Pentamidine was used for the T. b. brucei Lister 427 BSF growth inhibition assay.
(§2) All of the half maximal effective concentrations (EC50) and the half maximal cytotoxic concentrations (CC50) values were calculated using two independent experiments. The dose-response curves were fitted using GraphPad Prism 6 software (GraphPad Software, San Diego, CA, USA) by using a sigmoidal dose-response equation with a variable hill slope option.

T. b. brucei Lister 427 = test: HAT mouse model (acute T. b. brucei Lister 427 infection of BALB/c mice); type: in vivo; settings: for parasitemia in T. brucei-infected mice: five consecutive days of treatment, Torin2 15 mg/kg, NVP-BGT226 5 mg/kg
Description: BALB/c mice were infected with T. b. brucei Lister 427 (4 × 10^4 cells) by intraperitoneal (i.p.) injection. […] Parasitemia was evaluated daily for 2 weeks by blood collection from the mouse tail vein, and survival was monitored for 1 month. Mice showing impaired health status and/or with a parasite load > 10^8 cells per mL of blood were euthanized.

[2] = Host cell cytotoxicity (CC50) in infected THP-1 cells, dose-dilution assay; type: cell-based; settings: human, infected THP-1 host cells, read-out: THP-1 Cell CC50 ± SD
Description: (§3) PMA-treated THP-1 human monocytic cells were seeded at 0.8 × 10^4 cells per well in a 384-well culture plate (Greiner Bio-One, Kremsmünster, Austria) in RPMI-1640 complete medium supplemented with 10% FBS. After 48 h of incubation at 37 °C in the presence of 5% CO2, the promastigotes of L. donovani that were incubated with lectin for 30 min at 28 °C were added to the cells at a parasite to cell ratio of 20:1. […] The negative control consisted of THP-1 infected with the parasite with only 0.5% DMSO. After 72 h, the cells that were infected and treated with the drug were washed with serum-free RPMI-1640 medium. The cells and parasites were stained using 5 μM DRAQ5 and 4% PFA. The images were acquired based on reading using an Operetta® automated microscope (PerkinElmer, Inc., Waltham, MA 02451 USA). They were further analyzed using Columbus^TM (PerkinElmer, Inc. Waltham, MA, USA) software to quantify parasite numbers, host cell numbers, and infection ratios. In brief, large-sized nucleus of host cells was first detected using Draq-5 (Thermo Fisher, Rockford, IL, USA) signal and the host cell boundary masking was performed using the low-intensity signals from cytosols (additional feature of Draq-5). Then the small-sized nucleus signal by Draq-5 was used to identify parasites within the area of masked host cell. Infection ratio (IR) was determined with the value of the number of infected cells divided by total number of cells and the average number of parasites per macrophage (P/φ) was defined by the value of the number of parasites divided by the number of infected cells in the acquired image.
as §2

[3] = test system: intracellular L. donovani; test: Intracellular L. donovani in THP-1 cells, dose-dilution high-content imaging assay; type: cell-based; settings: for EC50: Leishmania donovani, THP-1 cells infected with L. donovani, 72 h, duplicate measurements, read-out: Intracellular L. donovani EC50 ± SD; for Selectivity Index (SI): SI = THP-1 CC50/Intracellular L. donovani EC50
Description: as §3, §2

L. donovani = test: VL mouse model (L. donovani-infected BALB/c mice); type: in vivo; settings: miltefosine 30, Torin2 15, dactolisib 50, NVP-BGT226 5 mg/kg; for Inhibition of L. donovani In Vivo (%) (Mean ± SD): liver parasite burden vs vehicle, per os 5 days; for LDU in the Liver (Mean ± SD): once daily per os for 5 days from day 7 post-infection
Description: The highest dose for each compound without showing adverse effects was selected based on literature search. The vehicle for the compounds was 5% N-methylpyrrolidone, 15% polyvinylpyrrolidone, and 80% deionized water. Drug dosing solutions were freshly prepared each day. All drugs were administered once daily for 5 days via the per os route. On day 16 post-infection, all animals were humanely euthanized and assessed microscopically using Giemsa-stained liver imprints. Parasite burdens were measured by counting (blinded to treatment) the number of amastigotes per 1000 cell nuclei and multiplying this number by the liver weight (mg) (Leishman-Donovan Unit: LDU). The LDU values for the drug-treated samples were compared to those of the untreated samples, and the percent inhibition values were calculated.

[4] = Pilot toxicity study in mice; type: in vivo; settings: 5 mg/kg dose
Description: For this proof of concept in vivo study, L. donovani infected BALB/c model was used to evaluate the ability of compound to reduce parasites in liver. […] Using the same dosing scheme, the efficacies of the compounds were evaluated in VL mouse model.

[5] = test system: L. donovani promastigotes; test: L. donovani promastigote growth inhibition (resazurin); type: cell-based; settings: Leishmania donovani, 72 h, 3 days exposure, read-out: L. donovani Promastigote EC50 ± SD
Description: as §1, §2

[6] = test system: intracellular L. donovani; test: Pilot high-content screening against intracellular L. donovani at 10 μM; type: cell-based; settings: screening concentration 10 µM
Description: as §3, with “image. The average IR value of the negative control wells was calculated as 0.53. Compounds selected based on the screening results were further assessed in a dose-dilution manner (two-fold serial dilution for 20 points starting from 100 μM) using the same method.” for “image.”

THP-1 cells = test: Host cell viability in pilot screening at 10 μM; type: cell-based, human; settings: screening concentration 10 µM
Description: as §3, with “[…] The average IR” for “Infection ratio (IR) was determined with the”, “negative control wells” for “number of infected cells divided by total number of cells and the average number of parasites per macrophage (P/φ)”, “calculated as 0.53. […]” for “defined by the value of the number of parasites divided by the number of infected cells in the acquired image.”

Structure (SMILES)	EC50 [1] [nM]	mice surviving during 14 days post-infection (T. b. brucei Lister 427; 5 mg/kg per os for 5 days) [%]	mice surviving more than 25 days without parasitemia (T. b. brucei Lister 427; 5 mg/kg per os for 5 days) [%]	delay in survival over the Torin2-treated group (T. b. brucei Lister 427; NVP-BGT226 5 mg/kg vs Torin2 15 mg/kg) [days]	parasitemia in T. brucei-infected mice (T. b. brucei Lister 427)	CC50 at 72 h [2] [nM]	EC50 [3] [nM]	Selectivity Index (SI) [3]	Inhibition of L. donovani In Vivo (%) (Mean ± SD) (L. donovani; 5 mg/kg)	LDU in the Liver (Mean ± SD) (L. donovani) [LDU]	toxicity in vivo [4]	EC50 [5] [nM]	inhibition of intracellular parasite survival in screening [6]	Inhibition of L. donovani In Vivo (%) (Mean ± SD) (L. donovani)	Inhibition of L. donovani In Vivo (%) (Mean ± SD) (L. donovani; listed as dactolisib)	mice surviving at least 13 days after infection (T. b. brucei Lister 427; 15 mg/kg per os for 5 days) [%]	toxicity against the host cell in screening (THP-1 cells)
COc1ccc(-c2ccc3ncc4c(c3c2)n(-c2ccc(N3CCNCC3)c(C(F)(F)F)c2)c(=O)n4C)cn1 [NVP-BGT226]	0.054 ± 0.003	80	20	1 to 2	reduced to under the limits of detection	2660 ± 460	140 ± 20	19	54% and 54 ± 3.18%	516 ± 36	no sign of toxicity was observed	9 ± 1	–	–	–	–	–
Cn1c(=O)n(-c2ccc(C(C)(C)C#N)cc2)c2c3cc(-c4cnc5ccccc5c4)ccc3ncc21 [Dactolisib (NVP-BEZ235)]	120 ± 10	–	–	–	–	> 100000	360 ± 70	≥277.8	–	527 ± 108	–	380 ± 60	found active	53 ± 9.50%	53	–	–
Nc1ccc(-c2ccc3ncc4ccc(=O)n(-c5cccc(C(F)(F)F)c5)c4c3c2)cn1 [Torin2, 9-(6-Aminopyridin-3-yl)-1-(3-(trifluoromethyl)phenyl)benzo[h][1,6]naphthyridin-2(1H)-one]	110 ± 10	–	–	–	parasitemia was observed still by day 5	–	250 ± 30	–	–	735 ± 66	–	30 ± 4	–	35% and 35 ± 5.81%	–	80	–
COc1ncc(-c2ccc3nccc(-c4ccnnc4)c3c2)cc1NS(=O)(=O)c1ccc(F)cc1F [GSK2126458]	–	–	–	–	–	–	–	–	–	–	–	–	found active	–	–	–	some toxicity against the host cell
